Laboratory results from patent US12568967B2, “Compositions comprising pyridine carboxylate herbicides with synthetic auxin herbicides or auxin transport inhibitors” (priority 2018, dated 2026).

Key:
[1] = test system: Kochia scoparia (kochia, KCHSC); experiment: Greenhouse postemergence trial KCHSC; format: in vivo; conditions: KCHSC; for visual injury, Obs: partner herbicide 560 g/ha alone
Description: (§1) Seeds of the desired test plant species were planted in a 90:10% v/v (volume/volume) mixture of PRO-MIX® BX (Premier Tech Horticulture, Quakertown, PA, USA) and PROFILE® GREENS GRADE™ (Profile Products LLC, Buffalo Grove, IL, USA) planting mixture, which typically has a pH of 5.2 to 6.2 and an organic matter content of at least 50 percent, in plastic pots with a surface area of 103.2 square centimeters (cm^2). […] The plants were grown for 7-36 days (d) in a greenhouse with an approximate 14-hour (h) photo-period which was maintained at about 23° C. during the day and 22° C. during the night. Nutrients and water were added on a regular basis and supplemental lighting was provided with overhead metal halide 1000-Watt lamps as necessary. The plants were employed for testing when they reached the second or third true leaf stage.
(§2) Emulsifiable concentrates of each of each pyridine carboxylate herbicide (Compound A or Compound B) were prepared at 100 grams acid equivalent per liter (g ae/L). The emulsifiable concentrates also included a safener, cloquintocet-mexyl, at 120 grams active ingredient per liter (g ai/L), unless otherwise noted below. An aliquot of each emulsifiable concentrate was placed in a 25 mL glass vial and diluted with an aqueous mixture of 1.25% (v/v) ACTIROB® B esterified rapeseed oil (Bayer Crop Science, Research Triangle Park, NC, USA) or MSO® Concentrate with LECI-TECH® methylated soybean oil (Loveland Products, Loveland, CO, USA) to obtain concentrated stock solutions at the highest application rate for each herbicide, based upon a 12 milliliter (mL) application volume at a rate of 187 liters per hectare (L/ha). The concentrated stock solutions were further diluted with an aqueous mixture of 1.25% v/v ACTIROB® B or MSO® Concentrate with LECI-TECH® to obtain stock solutions at reduced application rates for each herbicide. Spray solutions of the herbicide combinations (Compound A or Compound B plus synthetic auxin herbicide or auxin transport inhibitor) were prepared by adding weighed amounts or aliquots of the synthetic auxin herbicide or auxin transport inhibitor to the stock solutions of Compound A or Compound B to form 12-mL spray solutions in two-way combinations.
(§3) The spray solutions were applied to the plant material with an overhead Mandel track sprayer equipped with 8002E nozzles calibrated to deliver 187 L/ha over an application area of 0.503 square meters (m^2) at a spray height of 18 inches (43 centimeters (cm)) above the average plant canopy. Control plants were sprayed in the same manner with the solvent blank. All pyridine carboxylate herbicide (component a) application rates are given as “g ae/ha” and all synthetic auxin herbicide or auxin transport inhibitor (component b) application rates are given as “g ai/ha.”
(§4) The treated plants and control plants were placed in a greenhouse as described above and watered by sub-irrigation to prevent wash-off of the test compounds. After 20-22 d, the condition of the test plants as compared with that of the control plants was determined visually and scored on a scale of 0 to 100 percent where 0 corresponds to no injury and 100 corresponds to complete kill.

[2] = test system: Veronica persica (bird's-eye speedwell, VERPE); experiment: Greenhouse postemergence trial VERPE; format: in vivo; conditions: VERPE; for visual injury, Obs: partner herbicide 560 g/ha alone
Description: as §1, §2, §3, §4

[3] = test system: Papaver rhoeas (corn poppy), herbicide-resistant (PAPRH-R); experiment: Greenhouse postemergence trial PAPRH-R; format: in vivo; conditions: PAPRH-R; for visual injury, Obs: partner herbicide 560 g/ha alone
[4] = test system: Amaranthus retroflexus (pigweed, AMARE); experiment: Greenhouse postemergence trial AMARE; format: in vivo; conditions: for % visual injury: c1-2 Compound A 7.5/10;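 for all read-outs here: Greenhouse-grown plants sprayed at second to third true leaf stage, injury rated by eye after 20-22 d versus solvent-blank sprayed controls, 0 = no injury, 100 = complete kill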
[5] = test system: Polygonum convolvulus (wild buckwheat, POLCO); experiment: Greenhouse postemergence trial POLCO; format: in vivo; conditions: for visual injury, Obs: partner herbicide 560 g/ha alone
Description: as §1, §2, §3, §4

[6] = test system: Chenopodium album L. (common lambsquarters, CHEAL); experiment: Greenhouse postemergence trial CHEAL; format: in vivo; conditions: for % visual injury: c1-2 Compound A 7.5/10;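 for all read-outs here: greenhouse plants sprayed at second to third true leaf stage, injury rated by eye after 20-22 d versus solvent-blank sprayed controls, 0 = no injury, 100 = complete kill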
[7] = test system: Lamium purpureum (purple deadnettle, LAMPU); experiment: Greenhouse postemergence trial LAMPU; conditions: LAMPU; for visual injury, Obs: partner herbicide 560 g/ha alone
Description: (§5) The plants were grown for 7-36 days (d) in a greenhouse with an approximate 14-hour (h) photo-period which was maintained at about 23° C. during the day and 22° C. during the night. Nutrients and water were added on a regular basis and supplemental lighting was provided with overhead metal halide 1000-Watt lamps as necessary. The plants were employed for testing when they reached the second or third true leaf stage.
(§6) The emulsifiable concentrates also included a safener, cloquintocet-mexyl, at 120 grams active ingredient per liter (g ai/L), unless otherwise noted below.
(§7) Control plants were sprayed in the same manner with the solvent blank. All pyridine carboxylate herbicide (component a) application rates are given as “g ae/ha” and all synthetic auxin herbicide or auxin transport inhibitor (component b) application rates are given as “g ai/ha.”
as §4

[8] = test system: Brassica napus (winter rape, BRSNW); experiment: Greenhouse postemergence trial BRSNW; format: in vivo; conditions: for visual injury, Obs: partner herbicide 560 g/ha alone
[9] = test system: Sinapis arvensis (wild mustard, SINAR); experiment: Greenhouse postemergence trial SINAR; format: in vivo; conditions: SINAR; for visual injury, Obs: partner herbicide 560 g/ha alone
Description: as §5, §6, §7, §4

[10] = test system: Viola arvensis (field violet, VIOAR); experiment: Greenhouse postemergence trial VIOAR; format: in vivo; conditions: VIOAR; for visual injury, Obs: partner herbicide 560 g/ha alone
[11] = test system: Stellaria media (chickweed, STEME); experiment: Greenhouse postemergence trial STEME; format: in vivo; conditions: STEME; for visual injury, Obs: partner herbicide 560 g/ha alone
[12] = test system: Papaver rhoeas (corn poppy, PAPRH); experiment: Greenhouse postemergence trial PAPRH; format: in vivo; conditions: PAPRH; for visual injury, Obs: partner herbicide 560 g/ha alone
Description: as §1, §2, §3, §4

[13] = test system: Anthemis arvensis (field chamomile, ANTAR); experiment: Greenhouse postemergence trial ANTAR; format: in vivo; conditions: ANTAR; for visual injury, Obs: partner herbicide 560 g/ha alone
[14] = test system: Matricaria discoidea (pineapple weed, MATMT); experiment: Greenhouse postemergence trial MATMT; format: in vivo; conditions: MATMT; for visual injury, Obs: partner herbicide 560 g/ha alone
[15] = test system: Viola tricolor (wild pansy, VIOTR); experiment: Greenhouse postemergence trial VIOTR; conditions: VIOTR; for visual injury, Obs: partner herbicide 560 g/ha alone;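 for all read-outs here: greenhouse plants sprayed at second to third true leaf stage, injury rated visually after 20-22 d against solvent-blank sprayed controls, 0 meaning no injury and 100 complete kill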
[16] = test system: Matricaria inodora (false chamomile, MATIN); experiment: Greenhouse postemergence trial MATIN; format: in vivo; conditions: MATIN; for visual injury, Obs: partner herbicide 560 g/ha alone
[17] = test system: Matricaria chamomilla (wild chamomile, MATCH); experiment: Greenhouse postemergence trial MATCH; format: in vivo; conditions: MATCH; for visual injury, Obs: partner herbicide 560 g/ha alone; for % visual injury, Obs: applied alone;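 for all read-outs here: greenhouse plants sprayed at second to third true leaf stage, injury rated by eye 20-22 d later versus solvent-blank controls on 0–100 scale, 0 no injury, 100 complete kill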
Description: as §5, §6, §7, §4

[18] = test system: Capsella bursa-pastoris (shepherd's purse, CAPBP); experiment: Greenhouse postemergence trial CAPBP; format: in vivo; conditions: CAPBP; for visual injury, Obs: partner herbicide 560 g/ha alone
Description: as §1, §2, §3, §4

[19] = test system: Veronica hederifolia (ivyleaf speedwell, VERHE); experiment: Greenhouse postemergence trial VERHE; format: in vivo; conditions: VERHE; for visual injury, Obs: partner herbicide 560 g/ha alone
Description: as §1, §2, §3, §4

[20] = test system: Cirsium arvense (Canadian thistle, CIRAR); experiment: Greenhouse postemergence trial CIRAR; format: in vivo; conditions: for visual injury, Obs: partner herbicide 560 g/ha alone
[21] = test system: Triticum aestivum (spring wheat, TRZAS); format: in vivo
[22] = test system: Cyanus segetum (cornflower, CENCY); experiment: Greenhouse postemergence trial CENCY; format: in vivo; conditions: CENCY; for visual injury, Obs: partner herbicide 560 g/ha alone
[23] = test system: Salsola kali (Russian thistle, SASKR); experiment: Greenhouse postemergence trial SASKR; format: in vivo; conditions: SASKR; for visual injury, Obs: partner herbicide 560 g/ha alone;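 for all read-outs here: greenhouse plants sprayed at second or third true leaf stage, injury rated by eye after 20-22 d against solvent-blank controls, 0 meaning no injury, 100 complete kill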
[24] = test system: Triticum aestivum (winter wheat, TRZAW); experiment: Greenhouse postemergence crop phytotoxicity TRZAW; format: in vivo; conditions: TRZAW; applied alone, 560 g/ha
[25] = test system: Hordeum vulgare (spring barley, HORVS); format: in vivo; conditions: HORVS
Description: as §1, §2, §3, §4

[26] = test system: Hordeum vulgare (winter barley, HORVW); experiment: Greenhouse postemergence crop phytotoxicity HORVW; format: in vivo; conditions: HORVW; applied alone, 560 g/ha
Description: as §1, §2, §3, §4

[27] = c3 2,4-D-EHE 280, c4-5 A 7.5/10 + 2,4-D-EHE 280 g/ha
[28] = c3 Dicamba 140, c4-5 A 7.5/10 + Dicamba 140 g/ha

In the case of `CCCCC(CC)COC(=O)COc1ccc(Cl)cc1Cl` [2,4-D-EHE, 2,4-D-2-ethylhexyl, reference compound], the “visual injury, Obs” value [1] is reported as 65%, the “visual injury, Obs” value [2] is reported as 65% and the “visual injury, Obs” value [3] is reported as 50%. For the same molecule, the “AMARE % visual injury Obs” value ([4]; 2,4-D-EHE 280 g/ha (Table 36)) was 45%, the “% visual injury” value [4, 27] was 70% and the “POLCO % visual injury Obs” value ([5]; 2,4-D-EHE 280 g/ha (Table 36)) was 23%. For the same molecule, the “POLCO Δ (Obs minus Exp)” value ([5]; 2,4-D-EHE 280 g/ha (Table 36)) was 11%, the “visual injury, Obs” value ([5]; POLCO) was 30% and the “% visual injury” value [6, 27] was 75%. For the same molecule, the “visual injury, Obs” value [7] was 20%, the “BRSNW % visual injury Obs” value ([8]; 2,4-D-EHE 280 g/ha (Table 36)) was 65% and the “BRSNW Δ (Obs minus Exp)” value ([8]; 2,4-D-EHE 280 g/ha (Table 36)) was 3%. For the same molecule, the “visual injury, Obs” value ([8]; BRSNW) was 100%, the “visual injury, Obs” value [9] was 85% and the “visual injury, Obs” value [10] was 60%. For the same molecule, the “visual injury, Obs” value [11] was 10%, the “visual injury, Obs” value [12] was 60% and the “visual injury, Obs” value [13] was 60%. The “visual injury, Obs” value [14] was 5%, the “visual injury, Obs” value [15] was 65% and the “visual injury, Obs” value [16] was 10%. The “visual injury, Obs” value [17] was 10%, the “visual injury, Obs” value [18] was 70% and the “visual injury, Obs” value [19] was 70%. The “CIRAR % visual injury Obs” value ([20]; 2,4-D-EHE 280 g/ha (Table 36)) was 45%, the “visual injury, Obs” value ([20]; CIRAR) was 65% and the “% visual injury (crop phytotoxicity)” value ([21]; c1-2 Compound A 7.5/10, c3 2,4-D-EHE 280, c4-5 A 7.5/10 + 2,4-D-EHE 280 g/ha) was 0%. The “visual injury, Obs” value [22] was 100% and the “visual injury, Obs” value [23] was 65%.

For `COc1c(Cl)ccc(Cl)c1C(=O)O` [Dicamba, dicamba, reference compound], the “visual injury, Obs” value [1] was 80%, the “visual injury, Obs” value [2] was 60% and the “visual injury, Obs” value [3] was 30%. For the same molecule, the “% visual injury, Obs” value ([4]; AMARE, applied alone, 140 g/ha) was 60%, the “% visual injury” value [4, 28] was 50% and the “visual injury, Obs” value ([5]; POLCO) was 100%. The “% visual injury” value [6, 28] was 48%, the “visual injury, Obs” value [7] was 20% and the “visual injury, Obs” value ([8]; BRSNW) was 70%. The plant injury at 140 g/ha ([8]; Brassica napus, post-emergence, BRSNW, applied alone, 140 g/ha, read-out: % visual injury, Obs) was 23%, the “visual injury, Obs” value [9] was 85% and the “visual injury, Obs” value [10] was 30%. For the same molecule, the “visual injury, Obs” value [11] was 75%, the “visual injury, Obs” value [12] was 30% and the “visual injury, Obs” value [13] was 100%. The “visual injury, Obs” value [14] was 25%, the “visual injury, Obs” value [15] was 20% and the “visual injury, Obs” value [16] was 70%. The “% visual injury, Obs” value ([17]; 140 g/ha) was 3%, the “visual injury, Obs” value [17] was 35% and the “visual injury, Obs” value [18] was 60%. The “visual injury, Obs” value [19] was 75%, the “visual injury, Obs” value ([20]; CIRAR) was 70% and the “visual injury, Obs” value [22] was 100%. For the same molecule, the “visual injury, Obs” value [23] was 65%.

In the case of `Cc1cc(Cl)ccc1OC(C)C(=O)O` (stereo not shown) [Mecoprop], the “% visual injury (Obs)” value ([1]; alone 280 g/ha) is reported as 68%, the “% visual injury, Obs” value ([1]; applied alone, 560 g/ha) is reported as 80% and the “% visual injury, Obs” value ([2]; applied alone, 560 g/ha) is reported as 30%. The “% visual injury, Obs” value ([3]; applied alone, 560 g/ha) was 30%, the “% visual injury (Obs)” value ([4]; AMARE, alone 280 g/ha) was 58% and the “% visual injury (Obs)” value ([5]; POLCO, alone 280 g/ha) was 10%. For the same molecule, the “% visual injury, Obs” value ([5]; POLCO, applied alone, 560 g/ha) was 20%, the “% visual injury (Obs)” value ([6]; CHEAL, alone 280 g/ha) was 73% and the “% visual injury, Obs” value [24] was 0%. The “% visual injury, Obs” value ([7]; applied alone, 560 g/ha) was 10%, the “% visual injury (Obs)” value ([8]; BRSNW, alone 280 g/ha) was 63% and the plant injury at 560 g/ha ([8]; Brassica napus, post-emergence, BRSNW, applied alone, 560 g/ha, read-out: % visual injury, Obs) was 75%. The “% visual injury (Obs)” value ([25]; alone 280 g/ha) was 0%, the “% visual injury, Obs” value ([25]; applied alone, 560 g/ha) was 0% and the “% visual injury (Obs)” value ([9]; alone 280 g/ha) was 80%. The “% visual injury, Obs” value ([9]; applied alone, 560 g/ha) was 95%, the “% visual injury, Obs” value ([10]; applied alone, 560 g/ha) was 10% and the “% visual injury, Obs” value ([11]; applied alone, 560 g/ha) was 30%. The “% visual injury, Obs” value ([12]; applied alone, 560 g/ha) was 65%, the “% visual injury, Obs” value ([13]; applied alone, 560 g/ha) was 10% and the “% visual injury, Obs” value [26] was 0%. For the same molecule, the “% visual injury, Obs” value ([14]; applied alone, 560 g/ha) was 10%, the “% visual injury, Obs” value ([15]; applied alone, 560 g/ha) was 65% and the “% visual injury, Obs” value ([16]; applied alone, 560 g/ha) was 65%. The “% visual injury (Obs)” value ([17]; alone 280 g/ha) was 18%, the “% visual injury, Obs” value ([17]; 560 g/ha) was 10% and the “% visual injury, Obs” value ([18]; applied alone, 560 g/ha) was 60%. For the same molecule, the “% visual injury, Obs” value ([19]; applied alone, 560 g/ha) was 50%, the “% visual injury (Obs)” value ([20]; CIRAR, alone 280 g/ha) was 68% and the “% visual injury, Obs” value ([20]; CIRAR, applied alone, 560 g/ha) was 70%. The “% visual injury (Obs)” value ([21]; TRZAS, alone 280 g/ha) was 0%, the “% visual injury, Obs” value ([21]; TRZAS, applied alone, 560 g/ha) was 0% and the “% visual injury, Obs” value ([22]; applied alone, 560 g/ha) was 100%. The “% visual injury, Obs” value ([23]; applied alone, 560 g/ha) was 50%.
